Tests used:
Format in all cases: physicochemical
[1] = Solubility study of DOT derivatives in nail polish (supersaturated solution, quantitative 1H NMR); conditions: for Solubility (wt % in polish): nail polish (clear topcoat), supersaturated solution filtered through 0.25 μm PTFE, quantitative 1H NMR; for Notes: solubility / appearance in nail polish solution: standard nail polish solution
Procedure: The solubility of various DOT derivatives in nail polish was observed by generating a supersaturated solution of the compounds in nail polish (clear topcoat). The supersaturated solution was filtered through a 0.25 μm PTFE syringe filter, and a known mass of an internal NMR standard (bis-1,4-trimethylsilylbenzene) was added. The amount of the compound that was dissolved in the nail polish was then determined by quantitative ^1H NMR. The solubility was taken as the amount of the weight fraction of the compound dissolved in nail polish in a supersaturated solution.

[2] = Disappearance of visible absorbance (yellowness) of polymer compositions under UV irradiation, image analysis in ImageJ; conditions: upon polymerization
Procedure: In some embodiments, the polymer composition is prepared by polymerizing the first, second, and third monomers. In certain embodiments, the third monomer is added subsequently to a mixture of at least the first and second monomers. When added to the polymer composition, the third monomer may contribute a visible absorbance that obscures the intended color of the polymer. […] In some embodiments, UV irradiation initiates the polymerization process. The disappearance of the visible absorbance can be measured by image analysis in ImageJ. […] As shown, the visible absorbance of polymer compositions with concentrations of 1, 2, and 5 wt % 2SiPr-DOT disappears after 20 minutes of UV irradiation. Compositions with lower concentrations show a disappearance of viable absorbance between about 5 and about 10 minutes of UV irradiation.

[3] = Bench stability noted for DOT derivatives

## CC(C)Sc1ccc2c(c1)-c1ccccc1COC2=S [2S^iPr-DOT, 2-(isopropylthio)dibenzo[c,e]oxepine-5(7H)-thione]
[1]
  Solubility (wt % in polish): 7.64 wt % in polish
  Notes: solubility / appearance in nail polish solution: Yellow crystalline solid; shows superior solubility in standard nail polish solution
[1]; nail polish, versus DOT or 2S^sBu-DOT
  Solubility in nail polish, comparison in words: superior solubility in nail polish over DOT or 2S^sBu-DOT
[2]
  Colour contributed to the polymer (visible absorbance): does not contribute a permanent color

## CCC(C)Sc1ccc2c(c1)-c1ccccc1COC2=S (centres unmarked) [2S^sBu-DOT]
[1]
  Solubility (wt % in polish): 2.00 wt % in polish
  Notes: solubility / appearance in nail polish solution: cloudy and inhomogeneous in nail polish solution
[3]
  Notes: bench stability: not bench stable

## S=C1OCc2ccccc2-c2ccccc21 [DOT, dibenzo[c,e]oxepine-5(7H)-thione, reference compound]
[1]
  Solubility (wt % in polish): 2.23 wt % in polish

From patent US12377037B2, “Cleavable comonomer strategy for accelerating removal of gel nail polish” (MASSACHUSETTS INSTITUTE OF TECHNOLOGY, priority 2022, dated 2025)
